The record followed here is paper PMC3400110 (Journal of Medicinal Chemistry, 2009).

The target in series [1] is T1, human P-gp-His10 (Homo sapiens, UniProt P08183).
The target of series [2] is T1, human P-gp-His10. Description: Stimulation of human P-gp-His10 ATPase activity. Conditions: read-out: KM (apparent Michaelis-Menten constant, concentration for half maximal stimulation of ATPase activity).
The nature of another series: log P. Type of series: physicochemical. Conditions: n-octanol/water.
Series [3] concerns MDCKII-MDR1 transfected cells, which over-express P-gp. Put plainly: Transport and cell association across monolayers of MDCKII-MDR1 cells. Conditions: 5 μM dye, 4.3 mg mL^−1 BSA (23-Se: no added BSA); for PAB (absorptive transport), + inh / PBA (secretory transport), + inh: + […] inhibitor 42.
Series [4] has the same test system. Conditions: dog, MDCK-MDR1.
Another series has as its system P-gp. Description: in vitro. Conditions: dog, MDCK-MDR1.

Where “and” joins values, the source holds several entries; their conditions need not be identical. Equal entries are not always repeated. Where two headings read alike, the source gives them in different places.

T1 sequence (P08183 whole entry): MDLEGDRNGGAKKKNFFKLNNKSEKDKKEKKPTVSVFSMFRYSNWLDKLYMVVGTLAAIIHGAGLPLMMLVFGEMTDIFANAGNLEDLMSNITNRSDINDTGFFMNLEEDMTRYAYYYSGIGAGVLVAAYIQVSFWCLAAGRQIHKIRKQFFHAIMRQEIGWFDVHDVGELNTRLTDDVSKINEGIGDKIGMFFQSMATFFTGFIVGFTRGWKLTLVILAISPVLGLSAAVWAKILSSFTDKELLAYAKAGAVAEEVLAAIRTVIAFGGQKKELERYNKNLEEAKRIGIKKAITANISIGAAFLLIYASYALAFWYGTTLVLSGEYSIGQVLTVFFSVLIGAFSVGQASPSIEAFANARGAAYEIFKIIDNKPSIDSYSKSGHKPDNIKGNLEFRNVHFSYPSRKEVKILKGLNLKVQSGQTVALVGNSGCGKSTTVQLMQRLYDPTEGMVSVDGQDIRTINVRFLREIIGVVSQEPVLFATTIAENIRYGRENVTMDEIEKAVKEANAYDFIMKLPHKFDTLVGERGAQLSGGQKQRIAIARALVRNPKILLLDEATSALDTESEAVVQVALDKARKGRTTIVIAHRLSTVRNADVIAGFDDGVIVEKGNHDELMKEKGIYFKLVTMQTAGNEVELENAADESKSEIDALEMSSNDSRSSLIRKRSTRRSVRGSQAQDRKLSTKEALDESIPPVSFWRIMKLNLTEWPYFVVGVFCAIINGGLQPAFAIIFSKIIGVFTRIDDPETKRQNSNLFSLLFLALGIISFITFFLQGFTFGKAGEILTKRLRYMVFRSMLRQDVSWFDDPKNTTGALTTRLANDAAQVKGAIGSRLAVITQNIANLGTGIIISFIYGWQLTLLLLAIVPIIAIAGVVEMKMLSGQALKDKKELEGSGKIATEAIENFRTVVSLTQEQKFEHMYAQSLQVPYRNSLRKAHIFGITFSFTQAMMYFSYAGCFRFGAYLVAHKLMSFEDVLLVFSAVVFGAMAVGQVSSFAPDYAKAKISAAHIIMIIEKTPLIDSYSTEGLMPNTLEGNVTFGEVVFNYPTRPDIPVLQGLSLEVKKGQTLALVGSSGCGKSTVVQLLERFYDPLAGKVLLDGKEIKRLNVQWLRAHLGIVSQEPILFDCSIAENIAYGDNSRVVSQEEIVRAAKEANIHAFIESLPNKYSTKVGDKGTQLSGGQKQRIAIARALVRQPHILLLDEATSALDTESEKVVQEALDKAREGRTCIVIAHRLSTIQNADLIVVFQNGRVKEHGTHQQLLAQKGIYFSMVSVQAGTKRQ

Take `CN(C)c1ccc2c(-c3ccccc3)c3ccc(=[N+](C)C)cc-3[se]c2c1` [Compound 1-Se]: on human P-gp-His10 [1], the Km worked out at 9.1 ± 1.1 µM.

On to `CN(C)c1ccc2c(-c3ccccc3)c3ccc(=[N+](C)C)cc-3[te]c2c1` [Compound 1-Te], for which the Km at human P-gp-His10 [1] was found to be 8.3 ± 0.8 µM.

Take `CN(C)c1ccc(-c2c3ccc(=[N+](C)C)cc-3sc3cc(N(C)C)ccc23)cc1` [Compound 5-S]: on human P-gp-His10 [2], the Km stood at 8.3 ± 1.2 µM.

`CN(C)c1ccc(-c2c3ccc(=[N+](C)C)cc-3[se]c3cc(N(C)C)ccc23)cc1` [Compound 5-Se]: the Km on human P-gp-His10 [1] is 10.1 ± 0.7 µM.

Consider `CN(C)c1ccc(-c2c3ccc(=[N+](C)C)cc-3[te]c3cc(N(C)C)ccc23)cc1` [Compound 5-Te], for which the Km on human P-gp-His10 [1] came to 9 ± 0.8 µM.

Regarding `CN(C)c1cccc(-c2c3ccc(=[N+](C)C)cc-3sc3cc(N(C)C)ccc23)c1` [Compound 7-S], the Km on human P-gp-His10 [2] came out at 3.4 ± 0.6 µM.

For the compound `CN(C)c1cccc(-c2c3ccc(=[N+](C)C)cc-3[se]c3cc(N(C)C)ccc23)c1` [Compound 7-Se], the Km on human P-gp-His10 [1] stood at 3.5 ± 0.2 µM.

For the compound `CN(C)c1cccc(-c2c3ccc(=[N+](C)C)cc-3[te]c3cc(N(C)C)ccc23)c1` [Compound 7-Te], the Km on human P-gp-His10 [1] worked out at 2 ± 0.1 µM.

With `COc1cccc(-c2c3ccc(=[N+](C)C)cc-3sc3cc(N(C)C)ccc23)c1` [Compound 10-S], the Km at human P-gp-His10 [2] amounted to 3.9 ± 0.1 µM.

Take `COc1cccc(-c2c3ccc(=[N+](C)C)cc-3[se]c3cc(N(C)C)ccc23)c1` [Compound 10-Se]: on human P-gp-His10 [1], the Km came to 3.3 ± 0.6 µM.

For `COc1cccc(-c2c3ccc(=[N+](C)C)cc-3[te]c3cc(N(C)C)ccc23)c1` [Compound 10-Te], at human P-gp-His10 [1], the Km was 3.2 ± 1 µM.

With `CN(C)c1ccc2c(-c3ccc(C(=S)N4CCCCC4)s3)c3ccc(N(C)C)cc3[s+]c2c1` [Compound 30-S, 3,6-Bis(dimethylamino)-9-(N-piperidyl-2-thienyl-5-thiocarboxamido)thioxanthylium Hexafluorophosphate], the Km at human P-gp-His10 [2] came out at 0.36 ± 0.08 µM.

As a reminder, the log P is the decadic logarithm of the partition coefficient of the neutral form, usually between octanol and water. Low readings indicate lower lipophilicity, high ones higher lipophilicity. As to `CN(C)c1ccc2c(-c3ccc(C(=S)N4CCCCC4)s3)c3ccc(N(C)C)cc3[te+]c2c1.F[P-](F)(F)(F)(F)F` [Compound 30-Te, 3,6-Bisa(dimethylamino)-9-(N-piperidyl-2-thienyl-5-thiocarboxamido)telluroxanthylium Hexafluorophosphate], the lipophilicity (log P) in “log P” stood at 0.9. Besides, in series [3], the “PAB (absorptive transport), + inh” value worked out at 1.2 ± 0.1 nm/s and the “PBA (secretory transport), + inh” value was determined as 0.2 ± 0.01 ×10⁻⁶ cm/s. In addition, in series [3] (no inhibitor), the “PAB (absorptive transport)” value was 0.09 ± 0.01 ×10⁻⁶ cm/s and the “PBA (secretory transport)” value is 2.2 ± 0.8 ×10⁻⁶ cm/s. For the same compound, the Km on human P-gp-His10 [2] worked out at 0.41 ± 0.03 µM.

For the compound `CN(C)c1ccc2c(-c3ccc(C(=S)N4CCCCC4)s3)c3cc4c5c(c3[s+]c2c1)CCCN5CCC4.F[P-](F)(F)(F)(F)F` [Compound 31-S, 12-(Dimethylamino)-2,3,6,7-tetrahydro-9-(N-Piperidyl-2-thienyl-5-thiocarboxamido)-1H,5H-thioxantheno[2,3,4-ij]quinolizin-14-ium Hexafluorophosphate], in series [3], the “PAB (absorptive transport), + inh” value was 0.8 ± 0.1 0.8 ± 0.1 nm s^−1 and the “PBA (secretory transport), + inh” value stood at 0.16 ± 0.01 ×10⁻⁶ cm/s. Moreover, the “PBA (secretory transport)” value in series [3] (no inhibitor) is 5 ×10⁻⁶ cm/s and 5 ± 0.1 ×10⁻⁶ cm/s. The Km on human P-gp-His10 [2] was found to be 0.087 ± 0.012 µM.

One may read the Papp as the rate of passage across a membrane or cell layer, normalised by area and donor concentration. A higher Papp goes with ready permeation. As to `CN(C)c1ccc2c(-c3ccc(CCl)cc3)c3ccc(=[N+](C)C)cc-3oc2c1.[Br-]` [TMR, tetramethylrosamine], in series [4], the “P BA/AB (ratio of secretory to absorptive transport), + inh” value was 338 1.6; the “PAB (absorptive transport)” value is 3.0 ± 0.1 14 ± 1 nm s^−1; the “PAB (absorptive transport), + inh” value is 3.0 ± 0.1 14 ± 1 nm s^−1; the “PBA (secretory transport), + inh” value was 1010 ± 10 21 ± 2 nm s^−1. In the series on P-gp, the apparent permeability (Papp) is 1.7 ± 0.5 ×10⁻⁶ cm/s.
